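Five compound concentrations were applied to cells in 96-well plates for 48 hours; endpoints were derived by simple linear interpolation of the resulting dose-response curve. Abbreviation: GI50, concentration required for 50% inhibition of growth. TGI: total growth inhibition.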
Columns and labels:
Assay in all cases: DTP human tumour cell line panel, 48 h
[1] = test system: MALME-3M melanoma
[2] = test system: M14 melanoma
[3] = test system: BT-549 breast
[4] = test system: HT29 colon
[5] = test system: EKVX NSCLC
[6] = test system: NCI-H23 lung
[7] = test system: OVCAR-4 ovarian
[8] = test system: TK-10 renal
[9] = test system: RPMI-8226 leukemia
[10] = test system: KM12 colon
[11] = test system: HCT-15 colon
[12] = test system: OVCAR-3 ovarian
[13] = test system: A549 NSCLC
[14] = test system: A498 renal
[15] = test system: U251 CNS
[16] = test system: SK-MEL-5 melanoma
[17] = test system: SNB-19 CNS
[18] = test system: OVCAR-5 ovarian
[19] = test system: ACHN renal
[20] = test system: K-562 leukemia
[21] = test system: NCI/ADR-RES ovarian
[22] = test system: SF-539 CNS
[23] = test system: SNB-75 CNS
[24] = test system: CCRF-CEM leukemia
[25] = test system: MCF7 breast
[26] = test system: IGROV1 ovarian
[27] = test system: SK-OV-3 ovarian
[28] = test system: NCI-H226 lung
[29] = test system: SF-295 CNS
[30] = test system: PC-3 prostate
[31] = test system: 786-0 renal
[32] = test system: SK-MEL-28 melanoma
[33] = test system: MDA-MB-435
[34] = test system: SW-620 colon
[35] = test system: UO-31 renal
[36] = test system: SK-MEL-2 melanoma
[37] = test system: SF-268 CNS
[38] = test system: T-47D breast
[39] = test system: SN12C renal
[40] = test system: MOLT-4 leukemia
[41] = test system: RXF 393 renal
[42] = test system: HCT-116 colon
[43] = test system: DU-145 prostate
[44] = test system: MDA-MB-231 breast
[45] = test system: UACC-62 melanoma
[46] = test system: NCI-H522 lung
[47] = test system: HL-60(TB) leukemia
[48] = test system: HCC-2998 colon
[49] = test system: LOX IMVI melanoma
[50] = test system: COLO 205 colon
[51] = test system: HOP-92 NSCLC
[52] = test system: SR leukemia
[53] = test system: NCI-H460 lung
[54] = test system: HOP-62 NSCLC
[55] = test system: HS 578T breast
[56] = test system: OVCAR-8 ovarian
[57] = test system: UACC-257 melanoma
[58] = test system: CAKI-1 renal

Compound: Cc1cn(-c2cc(NC(=O)c3cccc(C#Cc4cccc5[nH]nc(N)c45)c3)cc(C(F)(F)F)c2)cn1
- GI50 [1]: 1.81 µM
- TGI [1]: 10.9 µM
- GI50 [2]: 2.48 µM
- TGI [2]: 17.4 µM
- GI50 [3]: 5.21 µM
- TGI [3]: 80.4 µM
- GI50 [4]: 2.55 µM
- TGI [4]: 17.7 µM
- GI50 [5]: 7.38 µM
- TGI [5]: > 100 µM
- GI50 [6]: 4.61 µM
- TGI [6]: > 100 µM
- GI50 [7]: 2.93 µM
- TGI [7]: 21.2 µM
- GI50 [8]: 17.8 µM
- TGI [8]: 60.4 µM
- GI50 [9]: 4.54 µM
- TGI [9]: > 100 µM
- GI50 [10]: 1.29 µM
- TGI [10]: > 100 µM
- GI50 [11]: 4.49 µM
- TGI [11]: > 100 µM
- GI50 [12]: 11.1 µM
- TGI [12]: 83.1 µM
- GI50 [13]: 10.4 µM
- TGI [13]: 35.2 µM
- GI50 [14]: 4.09 µM
- TGI [14]: 82.4 µM
- GI50 [15]: 5.15 µM
- TGI [15]: 20.3 µM
- GI50 [16]: 4.66 µM
- TGI [16]: 21.7 µM
- GI50 [17]: 8.14 µM
- TGI [17]: 32.7 µM
- GI50 [18]: 3.16 µM
- TGI [18]: > 100 µM
- GI50 [19]: 3.86 µM
- TGI [19]: 16 µM
- TGI [20]: > 100 µM
- GI50 [21]: 13.5 µM
- TGI [21]: > 100 µM
- GI50 [22]: 1.3 µM
- TGI [22]: 14.3 µM
- GI50 [23]: 2.19 µM
- TGI [23]: 9.02 µM
- GI50 [24]: 4.88 µM
- TGI [24]: > 100 µM
- GI50 [25]: 3.6 µM
- TGI [25]: > 100 µM
- GI50 [26]: 5.29 µM
- TGI [26]: 83.2 µM
- GI50 [27]: 22.2 µM
- TGI [27]: > 100 µM
- GI50 [28]: 0.771 µM
- TGI [28]: 61.2 µM
- GI50 [29]: 4.26 µM
- TGI [29]: 28.4 µM
- GI50 [30]: 6.46 µM
- TGI [30]: 26.7 µM
- GI50 [31]: 4.72 µM
- TGI [31]: 20.6 µM
- GI50 [32]: 2.62 µM
- TGI [32]: 25.7 µM
- GI50 [33]: 3.74 µM
- TGI [33]: 37 µM
- GI50 [34]: 4.22 µM
- TGI [34]: > 100 µM
- GI50 [35]: 2.79 µM
- TGI [35]: 26.5 µM
- GI50 [36]: 2.27 µM
- TGI [36]: 8.14 µM
- GI50 [37]: 4.81 µM
- TGI [37]: > 100 µM
- GI50 [38]: 3.39 µM
- TGI [38]: 18.5 µM
- GI50 [39]: 7.6 µM
- TGI [39]: > 100 µM
- GI50 [40]: 3.84 µM
- TGI [40]: > 100 µM
- GI50 [41]: 5.1 µM
- TGI [41]: 21.6 µM
- GI50 [42]: 2.62 µM
- TGI [42]: 18.8 µM
- GI50 [43]: 10.3 µM
- TGI [43]: 40.7 µM
- GI50 [44]: 2.35 µM
- TGI [44]: 16.7 µM
- GI50 [45]: 2.54 µM
- TGI [45]: 12.7 µM
- GI50 [46]: 5.48 µM
- TGI [46]: 49 µM
- GI50 [47]: 3.22 µM
- TGI [47]: 32.6 µM
- GI50 [48]: 3.17 µM
- TGI [48]: > 100 µM
- GI50 [49]: 2.87 µM
- TGI [49]: > 100 µM
- GI50 [50]: 2.45 µM
- TGI [50]: 15.8 µM
- GI50 [51]: 2.67 µM
- TGI [51]: 9.75 µM
- GI50 [52]: 5.06 µM
- TGI [52]: > 100 µM
- GI50 [53]: 4.13 µM
- TGI [53]: 16.7 µM
- GI50 [54]: 3.99 µM
- TGI [54]: 18.3 µM
- GI50 [55]: 2.86 µM
- TGI [55]: 42.2 µM
- GI50 [56]: 4.99 µM
- TGI [56]: 36.3 µM
- GI50 [57]: 6.59 µM
- TGI [57]: 78.3 µM
- GI50 [58]: 4.23 µM
- TGI [58]: 16.6 µM

From PubChem BioAssay (NCI)
